Assay results taken from US20040171680A1, “Treating Syndrome X with substituted tetralins and indanes” (priority 2002, published 2004).

Tests used:
[1] = target: T1, PPARα (Rattus norvegicus, UniProt P37230); test: HD bDNA Assay (HD gene induction); type: cell-based; conditions: in section F; target not named there, values match the PPARα column; read-out: EC50
T1 construct: H4IIE rat hepatoma cell line was obtained from ATCC; host or cells: H4IIE rat hepatoma cells
T1 sequence (P37230 1-468): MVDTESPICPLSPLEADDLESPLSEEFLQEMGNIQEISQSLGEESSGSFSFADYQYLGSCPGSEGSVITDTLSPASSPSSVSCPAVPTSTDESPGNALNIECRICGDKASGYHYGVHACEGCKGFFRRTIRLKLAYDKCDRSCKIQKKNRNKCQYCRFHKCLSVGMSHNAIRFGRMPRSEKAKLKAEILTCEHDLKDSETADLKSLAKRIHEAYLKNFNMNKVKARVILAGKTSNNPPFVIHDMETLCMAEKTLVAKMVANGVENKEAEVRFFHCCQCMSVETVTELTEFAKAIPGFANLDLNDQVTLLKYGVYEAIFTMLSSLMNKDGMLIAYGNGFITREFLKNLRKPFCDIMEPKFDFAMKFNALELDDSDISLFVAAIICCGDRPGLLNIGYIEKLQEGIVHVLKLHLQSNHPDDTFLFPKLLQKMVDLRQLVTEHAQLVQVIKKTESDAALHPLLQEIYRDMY
Outline: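 H4IIE rat hepatoma cells (~100,000/well) treated 24 hours at 37° C in low-serum medium (5% charcoal/dextran-treated calf serum) with compounds. HD mRNA quantified by branched DNA luminescence assay; EC50's from sigmoidal non-linear regression.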

[2] = target: T2, PPARδ (Homo sapiens, UniProt Q03181); test: Transfection Assay for PPARδ Receptors (PPAR-Gal4 / Gal4-Luciferase reporter in HEK293 cells); type: cell-based; conditions: values in square brackets
T2 construct: a Gal4-Luciferase reporter is co-transfected
T2 sequence (Q03181 171-441 limits assumed): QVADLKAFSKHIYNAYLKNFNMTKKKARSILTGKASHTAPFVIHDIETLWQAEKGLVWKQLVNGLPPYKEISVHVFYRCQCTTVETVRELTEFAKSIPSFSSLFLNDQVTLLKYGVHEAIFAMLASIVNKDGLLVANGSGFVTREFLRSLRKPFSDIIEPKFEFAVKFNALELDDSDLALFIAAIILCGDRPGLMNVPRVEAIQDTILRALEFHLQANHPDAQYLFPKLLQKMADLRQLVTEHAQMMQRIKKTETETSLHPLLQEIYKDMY
Outline: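 HEK293 cells co-transfected with PPAR-Gal4 receptor and Gal4-luciferase reporter, then moved into 5% charcoal-treated FBS medium. Compounds applied for 24 h at 37 °C, 5% CO2; luciferase activity read with Steady-Glo.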

Compound: CCN(C(=O)Nc1ccc(OC(F)(F)F)cc1)C1CCc2cc(SC(C)(C)C(=O)O)c(F)cc2C1 (centres unmarked) [Example 50, 2-{6-[1-Ethyl-3-(4-trifluoromethoxyphenyl)ureido]-3-fluoro-5,6,7,8-tetrahydronaphthalen-2-ylsulfanyl}-2-methylpropionic acid]
- EC50 [1]: 10 nM
- EC50 [2]: > 3000 nM
